The first assay concerns the target T1, human NaPi-IIb (Homo sapiens, UniProt O95436).
T1 construct: expressed in transfected cells
T1 sequence (O95436 1-690): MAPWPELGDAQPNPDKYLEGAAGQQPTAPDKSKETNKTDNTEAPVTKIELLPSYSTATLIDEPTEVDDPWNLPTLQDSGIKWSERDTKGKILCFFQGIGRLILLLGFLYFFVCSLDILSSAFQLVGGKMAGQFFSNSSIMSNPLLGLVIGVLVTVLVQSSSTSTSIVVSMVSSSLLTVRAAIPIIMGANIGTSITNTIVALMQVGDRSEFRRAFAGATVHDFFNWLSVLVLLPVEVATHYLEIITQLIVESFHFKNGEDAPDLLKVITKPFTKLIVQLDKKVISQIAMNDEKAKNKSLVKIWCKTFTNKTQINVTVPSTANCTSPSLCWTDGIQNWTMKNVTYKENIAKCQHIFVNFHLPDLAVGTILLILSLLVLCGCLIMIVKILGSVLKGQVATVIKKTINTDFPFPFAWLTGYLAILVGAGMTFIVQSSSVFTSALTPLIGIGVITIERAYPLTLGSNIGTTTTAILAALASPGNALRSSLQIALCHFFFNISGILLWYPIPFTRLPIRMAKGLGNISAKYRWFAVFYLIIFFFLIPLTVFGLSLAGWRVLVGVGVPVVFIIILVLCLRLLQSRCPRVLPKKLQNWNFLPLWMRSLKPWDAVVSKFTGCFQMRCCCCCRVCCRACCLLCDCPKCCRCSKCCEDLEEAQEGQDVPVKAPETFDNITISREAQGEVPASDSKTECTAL
Put plainly: Inhibitory effect on 33PO4 uptake into human NaPi-IIb-expressing CHO cells. The note with it: read-out: IC50. Type of assay: cell-based. The procedure, abridged:
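Stable human NaPi-IIb CHO line (G418-selected), plated and cultured overnight; ³³PO4 added in buffer A and uptake run at room temperature. Cells washed with ice-cold buffer A, then uptake counted by liquid scintillation.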
Broadly, the IC50 is the point on the concentration scale where inhibition reaches its midpoint. For `C[C@]12CCCN1N(Cc1cccc(F)c1F)C(=O)C(C(=O)Nc1ccc(Br)cc1-c1ccc(Cl)nc1)=C2O` [Example 122, (4aR)—N-[4-Bromo-2-(6-chloropyridin-3-yl)phenyl]-1-[(2,3-difluorophenyl)methyl]-4-hydroxy-4a-methyl-2-oxo-6,7-dihydro-5H-pyrrolo[1,2-b]pyridazine-3-carboxamide], the IC50 was determined as 8.6 µM.
With `C[C@]12CCCN1N(Cc1cc(F)ccc1Br)C(=O)C(C(=O)Nc1cc(F)c(Br)c(F)c1)=C2O` [Example 217], the half-inhibitory concentration (IC50) was 4.7 µM.
As to `CC(C)[C@@H]1C(O)=C(C(=O)Nc2ccc(Cl)cc2-c2cc(C(F)(F)F)ncn2)C(=O)N(Cc2cccc(F)c2F)N1C` [Example 250], the IC50 is 17.9 µM.
Same read-out and setting: next, `COc1cccc(-c2cc(C(F)(F)F)ccc2NC(=O)C2=C(O)[C@@]3(C)CCCN3N(Cc3ccc(CCCOCCOCCOCCO)c(F)c3F)C2=O)c1OC` [Example 142]: 17.6 µM; `CN1N(Cc2ccc(OCCN3CCOC(=O)C3)c(F)c2F)C(=O)C(C(=O)Nc2ccc(C(F)(F)F)cc2-c2cc(C(F)(F)F)ncn2)=C(O)C12CCC2` [Example 337, 8-[[2,3-Difluoro-4-[2-(2-oxomorpholin-4-yl)ethoxy]phenyl]methyl]-5-hydroxy-9-methyl-7-oxo-N-[4-(trifluoromethyl)-2-[6-(trifluoromethyl)pyrimidin-4-yl]phenyl]-8,9-diazaspiro[3.5]non-5-ene-6-carboxamide]: 17 µM; `C[C@]12CCCN1N(Cc1cccc(F)c1F)C(=O)C(C(=O)Nc1ccc(C(F)(F)F)cc1-c1cnc3ccccc3c1)=C2O` [Example 83]: 10.6 µM.
Turning to `COc1cc(C)c(-c2cc(C(F)(F)F)ccc2NC(=O)C2=C(O)[C@@]3(C)CCCN3N(Cc3cccc(F)c3F)C2=O)cn1` [Example 80], the 50% inhibitory concentration (IC50) stood at 12.5 µM.
The same measure, in the same setting: next, `CN1N(Cc2ccc(OCCN3CCOCC3)c(F)c2F)C(=O)C(C(=O)Nc2ccc(Br)c(C(F)(F)F)n2)=C(O)C12CCCCC2` [Example 298]: greater than 30 µM; `C[C@]12CCCN1N(Cc1cccc(Cl)c1)C(=O)C(C(=O)Nc1ccc(C(F)(F)F)cc1-c1ccc(C(F)(F)F)nc1)=C2O` [Example 169]: 2.6 µM; `Cc1nc(NC(=O)C2=C(O)C3(CCC3)N(C)N(Cc3cccc(F)c3F)C2=O)ccc1Br` [Example 259]: 10 µM.
The same measure, in the same setting: next, `CN1N(Cc2ccc(OCCCC(=O)O)c(F)c2F)C(=O)C(C(=O)Nc2ccc(C(F)(F)F)cc2-c2cc(C(F)(F)F)ncn2)=C(O)C12CCCC2` [Example 332, 4-[2,3-Difluoro-4-[[10-hydroxy-6-methyl-8-oxo-9-[[4-(trifluoromethyl)-2-[6-(trifluoromethyl)pyrimidin-4-yl]phenyl]carbamoyl]-6,7-diazaspiro[4.5]dec-9-en-7-yl]methyl]phenoxy]butanoate]: 23.9 µM; `CC1(C)C(O)=C(C(=O)Nc2ccc(C(F)(F)F)cc2-c2cc(C(F)(F)F)ncn2)C(=O)N(Cc2cccc(F)c2F)N1c1ccccc1` [Example 299]: 18.8 µM.
The same measure, in the same setting: next, `CN1N(Cc2cccc(F)c2F)C(=O)C(C(=O)Nc2ccc(C(F)(F)F)cc2-c2cncc(C(F)(F)F)c2)=C(O)C1(C)C` [Example 305]: 5.9 µM; `Cc1cccc(CN2C(=O)C(C(=O)Nc3ccc(C(F)(F)F)cc3-c3cc(C(F)(F)F)ncn3)=C(O)[C@@]3(C)CCCN23)c1` [Example 186]: 5.5 µM.
Regarding `CN1N(Cc2ccc(OCCCCCC(=O)O)c(F)c2F)C(=O)C(C(=O)Nc2ccc(C(F)(F)F)cc2-c2cc(C(F)(F)F)ncn2)=C(O)C12CCCC2` [Example 334], the IC50 was 10.3 µM.
The same measure, in the same setting: the result for `CCN1[C@@H](C(C)(C)C)C(O)=C(C(=O)Nc2ccc(Cl)cc2-c2ccc(C(F)(F)F)nc2)C(=O)N1Cc1cccc(F)c1F` [Example 245] reads 7.7 µM.
The same measure, in the same setting: the result for `C[C@]12CCCN1N(Cc1cc(F)ccc1F)C(=O)C(C(=O)Nc1cc(F)c(Br)c(F)c1)=C2O` [Example 193] reads 6.4 µM; that for `CN1N(Cc2cccc(F)c2F)C(=O)C(C(=O)Nc2ccc(C(F)(F)F)cc2-c2cc(C(F)(F)F)ncn2)=C(O)C12CCC2` [Example 300], 9.3 µM.
Take `CN1[C@@H](C(C)(C)C)C(O)=C(C(=O)Nc2ccc(C(F)(F)F)cc2-c2ccc(C(F)(F)F)nc2)C(=O)N1Cc1cccc(F)c1F` [Example 238]: the IC50 turned out to be 8.5 µM.
On the same count and under the same terms, the result for `C[C@]12CCCN1N(Cc1cccc(F)c1F)C(=O)C(C(=O)Nc1ccc(Cl)cn1)=C2O` [Example 79] reads 6.7 µM.
Still for that read-out and setting: next, `C[C@]12CCCN1N(Cc1c(F)cc(C#CCCOC[C@H](O)CO)cc1F)C(=O)C(C(=O)Nc1ccc(C(F)(F)F)cc1-c1ccc(C(F)(F)F)nc1)=C2O` [Example 145]: 7.1 µM; `C[C@]12CCCN1N(Cc1cc(F)cc(F)c1)C(=O)C(C(=O)Nc1ccc(C(F)(F)F)cc1-c1cc(C(F)(F)F)ncn1)=C2O` [Example 213]: 6.4 µM.
In the case of `CN1[C@@H](C(C)(C)C)C(O)=C(C(=O)Nc2ccc(Br)c(C(F)(F)F)c2)C(=O)N1Cc1cccc(F)c1F` [Example 243], the half-maximal inhibitory concentration (IC50) was determined as 7.4 µM.
Regarding `C[C@]12CCCN1N(Cc1ccc(F)c(Br)c1)C(=O)C(C(=O)Nc1cc(F)c(Br)c(F)c1)=C2O` [Example 224], the IC50 was found to be 7.2 µM.
`CN1N(Cc2ccc(C#CCN3CCOCC3)c(F)c2F)C(=O)C(C(=O)Nc2ccc(C(F)(F)F)cc2-c2cc(C(F)(F)F)ncn2)=C(O)C1(C)C` [Example 315]: the IC50 was found to be 9.8 µM.
The same measure, in the same setting: the result for `Cc1nc(NC(=O)C2=C(O)C3(CCCC3)N(C)N(Cc3cccc(F)c3F)C2=O)ccc1Br` [Example 262] reads 9.9 µM.

The assay is the same for the next values; noted with them: read-out: IC50 against 33PO4 uptake into human NaPi-IIb-expressing cells.
As for `CN1N(Cc2ccc(OCCCCCOCCO)c(F)c2F)C(=O)C(C(=O)Nc2ccc(C(F)(F)F)cc2-c2cc(C(F)(F)F)ncn2)=C(O)C12CCCC2` [Example 397], the IC50 is 8.6 µM.
`CN1N(Cc2ccc(OCCN3CCC(N4CCOCC4)CC3)c(F)c2F)C(=O)C(C(=O)Nc2ccc(C(F)(F)F)cc2-c2cc(C(F)(F)F)ncn2)=C(O)C12CCC2` [Example 358]: the half-maximal inhibitory concentration (IC50) came out at 9.2 µM.
With `CN1N(Cc2ccc(OCCN[C@@H](CC(=O)O)C(=O)O)c(F)c2F)C(=O)C(C(=O)Nc2ccc(C(F)(F)F)cc2-c2cc(C(F)(F)F)ncn2)=C(O)C12CCCC2` [Example 381, (2S)-2-[2-[2,3-Difluoro-4-[[10-hydroxy-6-methyl-8-oxo-9-[[4-(trifluoromethyl)-2-[6-(trifluoromethyl)pyrimidin-4-yl]phenyl]carbamoyl]-6,7-diazaspiro[4.5]dec-9-en-7-yl]methyl]phenoxy]ethylamino]butanedioate], the IC50 came out at 22 µM.
The same measure, in the same setting: next, `CN1N(Cc2ccc(NCCN3CCOCC3)c(F)c2F)C(=O)C(C(=O)Nc2ccc(C(F)(F)F)cc2-c2cc(C(F)(F)F)ncn2)=C(O)C12CCCC2` [Example 447]: 15.8 µM.
The same measure, in the same setting: the result for `CCCN(CCN(C)CCOC)c1ccc(CN2C(=O)C(C(=O)Nc3ccc(C(F)(F)F)cc3-c3cc(C(F)(F)F)ncn3)=C(O)C3(CCCC3)N2C)c(F)c1F` [Example 444] reads 7.4 µM; that for `CN1N(Cc2ccc(OCCN3C4CCC3COC4)c(F)c2F)C(=O)C(C(=O)Nc2ccc(C(F)(F)F)cc2-c2cc(C(F)(F)F)ncn2)=C(O)C12CCCC2` [Example 367], 14 µM.
On the same count and under the same terms, next, `CN(CCOc1ccc(CN2C(=O)C(C(=O)Nc3ccc(C(F)(F)F)cc3-c3cc(C(F)(F)F)ncn3)=C(O)C3(CCCC3)N2C)c(F)c1F)C1CCOCC1` [Example 365]: 12.2 µM; `CN1N(Cc2ccc(OCCCOC[C@H](O)CO)c(F)c2F)C(=O)C(C(=O)Nc2ccc(C(F)(F)F)cc2-c2cc(C(F)(F)F)ncn2)=C(O)C12CCC2` [Example 389]: 24.6 µM; `CN1N(Cc2ccc(OC(C)(C)CN3CCOCC3)c(F)c2F)C(=O)C(C(=O)Nc2ccc(C(F)(F)F)cc2-c2cc(C(F)(F)F)ncn2)=C(O)C12CCC2` [Example 407, 6-[[2,3-Difluoro-4-(2-methyl-1-morpholin-4-ylpropan-2-yl)oxyphenyl]methyl]-9-hydroxy-5-methyl-7-oxo-N-[4-(trifluoromethyl)-2-[6-(trifluoromethyl)pyrimidin-4-yl]phenyl]-5,6-diazaspiro[3.5]non-8-ene-8-carboxamide]: 6.9 µM.
As for `CN1N(Cc2ccc(OCC3CCCO3)c(F)c2F)C(=O)C(C(=O)Nc2ccc(C(F)(F)F)cc2-c2cc(C(F)(F)F)ncn2)=C(O)C12CCCC2` (centres unmarked) [Example 413], the half-inhibitory concentration (IC50) was 11.3 µM.
With `CN1N(Cc2ccc(OCCCCOCCCO)c(F)c2F)C(=O)C(C(=O)Nc2ccc(C(F)(F)F)cc2-c2cc(C(F)(F)F)ncn2)=C(O)C12CCCC2` [Example 399], the half-maximal inhibitory concentration (IC50) turned out to be 7.8 µM.
Consider `CSC1CN(CCOc2ccc(CN3C(=O)C(C(=O)Nc4ccc(C(F)(F)F)cc4-c4cc(C(F)(F)F)ncn4)=C(O)C4(CCC4)N3C)c(F)c2F)C1` [Example 357], for which the IC50 worked out at 21.8 µM.

These data come from US9499553B2 (CHUGAI SEIYAKU KABUSHIKI KAISHA, priority 2013, dated 2016).
